# Values joined by “and” are separate entries in the source; they are usually repeats but may differ in a detail not shown here. Identical values can stand only once. “Also recorded” adds a separate entry of the source.
# Columns and labels:
# TNBC cells [1] = experiment: Combination index (CI) of binary therapy, Chou-Talalay method, CompuSyn software; assay type: cell-based, human
# Protocol: (§1) The calculated CI values are based on 50 nM concentration for the PSs, 50 nM paclitaxel, 500 nM doxorubicin, 25 μM cisplatin, 25 μM fluorouracil, and 500 nM methotrexate.
# (§2) Cells were grown to confluence in a 96-well plate (9×10^3 cells/well) and co-treated for 24 hours with synthesized photosensitizers (PSs) and chemotherapeutic agents of varying concentrations ranging from 5 nM to 50 μM) in growth media from a stock solution of 10 mM in DMSO (dimethyl sulfoxide, Fisher). After 24-hour treatment, old growth media containing the PSs or compounds were aspirated out and replaced with fresh media. Plates were then positioned below a non-coherent LumaCare LC-122 650 nm light source for 1 minute at an energy fluence rate of 0.96 J/cm^2 and a power of 16 mW/cm^2 (measured using a Newport optical power meter Model 840). Unirradiated cells served as control samples. The following day, cells were washed with pre-warmed PBS, and 11MTT (3-[4,5-dimethyl-thiazol-2-yl]-2.5-diphenyltetrazolium bromide, Sigma, 0.3 mg/mL) in PBS was added to each well. Samples were allowed to incubate for additional 2 hours, after which dark blue crystals formed. DMSO was added to each well and plates were shaken at room temperature for 1 hour to dissolve the purplish-blue formazan crystals. Absorbance values at 570 nm were measured on a microplate reader (BioRad 550). Cell survival was calculated based on the absorbance of the untreated cells alone (as control) and were directly proportional to the number of viable cells in culture. Results were reported as the mean±SD of triplicate measurements.
# The combination index (CI) for the binary treatment of TNBC cells with a PS and a chemotherapeutic drug was calculated based on the Chou-Talalay method using CompuSyn software. […] The unified dynamics algorithm uses a minimum of dose-data points to fit the general MAL theory.
# as §1
# TNBC cells [2] = experiment: as above; assay type: cell-based, human; details: PS 50 nM + methotrexate 500 μM (footnote 500 nM)
# TNBC BT-549 cells = experiment: Cell survival / cell inhibition (MTT cell cytotoxicity assay) after 24 h treatment with photosensitizer and/or chemotherapeutic agent, dark or light-irradiated; assay type: cell-based, human
# Protocol: Human mammary epithelial carcinoma cell lines purchased from the American Type Culture Collection BT-549 (ATCC HTB-122) were cultured according to ATCC protocol. BT-549 cells were grown in RPMI 1640 containing 0.023 IU/mL insulin and supplemented with 10% fetal bovine serum (FBS). Cells were grown to 80-90% confluence in 75-cm^2 culture flasks (Corning) for 4-5 days in a humidified incubator (Fisher Scientific Isotemp) with 5% CO2 at 37° C. During the incubation period, growth media was changed once with fresh pre-warmed media (pH 7.2). To harvest the cells, old growth media was aspirated out, and 3 mL 0.25% trypsin solution (Thermo Sci Hyclone) were added. The cells were incubated for 5 minutes, and the cell pellet after centrifugation was resuspended in 3 mL media, broken up gently, then 1 mL of suspended cells was transferred into a new T75 cell culture flask containing pre-warmed media (20 mL) for further culturing.
# as §2
# The unmetallated PS and the indium complexes were used.
# Light dose corresponds to an energy fluence rate of 0.96 J/cm^2 used.
# Power of 16 mW/cm^2 used.
# Cell inhibition in TNBC cells is based on the cell survival (MTT) assay of the binary therapy, blending the effect of PDT and chemotherapeutic agents. […] MePheo serves as a control compound. TNBC cells were then exposed to light after binary treatment for 24 hours.
# human TNBC BT-549 cells = experiment: Fluorescence microscopy (Hoechst 33258) of cell morphology / cell death pathway; assay type: cell-based
# Protocol: Grayscale images of cells stained with Hoechst 33258. Morphology of (A) untreated unirradiated cells, sham control; (B) illuminated cells; (C-E) cells treated with: PSs (InCLA, CBTN, and CPA) and paclitaxel in the dark; (F-H) PSs, followed by 1 minute light exposure; (I) paclitaxel unirradiated; (J-L) PSs and paclitaxel in the dark; (M-O) PSs co-treated with paclitaxel, then light-exposed; (P-Q) PSs co-treated with doxorubicin, then irradiated; (R) PSs and cisplatin, dark; (S-T) PSs and cisplatin, irradiated; (U) fluorouracil, dark; (V) InCLA with fluorouracil in the dark; (W) light-exposed and, (X-Y) PSs with methotrexate with light. Inserts indicate enlarged view. […] Light dose in 1 minute=0.96 J cm^−2; in 30 seconds=0.48 J cm^−2. Concentrations: PSs=50 nM; paclitaxel=50 nM; doxorubicin=500 nM; cisplatin=25 μM; fluororuracil=25 μM; and, methotrexate=500 nM.
# Cells (1 mL aliquots) obtained from a diluted cell suspension were seeded into each well (1.7 cm^2, 8×10^3 cells/well) of a 4-well culture slide (BD Biosciences) and grown to confluence in 5% CO2 at 37° C. for 3-4 days for attachment to the substratum. After aspirating the old growth media, 1 mL of the photosensitizer and chemotherapeutic agents (with appropriate concentrations) in fresh pre-warmed media at 37° C. was added to each well. After compound treatment for 24 hours, cells were washed twice with 1 mL fresh growth media, and then irradiated with light using LumaCare LC-122 as described above. Cells were stained in the dark with Hoechst 33258 (Molecular Probes) in pre-warmed media for 10 minutes at 37° C., washed twice with filtered PBS, then fixed with filtered paraformaldehyde for 15 minutes in the incubator. After thorough liquid aspiration, the wells were removed and allowed to air dry in the dark for 1 hour. Slides were protected with coverslips, whose edges were sealed using clear fast-drying nail polish and allowed to dry at room temperature in the dark for 30 minutes. Images were recorded using fluorescence microscopy (DAPI for Hoechst 350-390 nm excitation and 460-490 nm emission filters) using an upright fluorescence microscope with Retiga imaging 2000R (Nikon Optiphot-2, 20× and 40×) and an image processing Nikon NIS-Elements V4.0 Qimaging software.
# To determine the preferred cell death pathway for the binary chemophotodynamic therapy, tracking the hallmarks of apoptosis or necrosis was accomplished using a nuclear stain to monitor chromatin condensation and cellular contraction. TNBC cells are spindle-shaped and nearly round with intact cytoplasm, diffused chromatin, distinct cellular membrane, and large oval nuclei staining dark blue with the nuclear stain (FIG. 18A-B).
# [3] = PS 100 nM + fluorouracil 25 μM, light
structure (smiles),measurement,setting,value
"C=Cc1c(C)c2cc3nc(c(CC(=O)OC)c4[nH]c(cc5nc(cc1[nH]2)C(C)=C5CC)c(C)c4C(=O)NCCCCCCNC(=O)CCCCC1SCC2NC(=O)NC21)C(CCC(=O)OC)C3C (stereo not shown) [CBTN, chlorin biotin conjugate]",combination index (CI) with cisplatin,TNBC cells [1]; PS 50 nM + cisplatin 25 μM,0.99
same,synergism vs additive vs antagonism effect with cisplatin,TNBC cells [1]; PS 50 nM + cisplatin 25 μM,"(NA) (NA (0.9-1.10), nearly additive)"
same,combination index (CI) with doxorubicin,TNBC cells [1]; PS 50 nM + doxorubicin 500 nM,2.44
same,synergism vs additive vs antagonism effect with doxorubicin,TNBC cells [1]; PS 50 nM + doxorubicin 500 nM,"(A) (A (1.45-3.3), antagonism)"
same,"ranking of combination partners based on CI, decreasing order",TNBC cells [1]; PS 50 nM + drug,fluorouracil>paclitaxel>cisplatin
same,combination index (CI) with fluorouracil,TNBC cells [1]; PS 50 nM + fluorouracil 25 μM,0.48
same,synergism vs additive vs antagonism effect with fluorouracil,TNBC cells [1]; PS 50 nM + fluorouracil 25 μM,"(S) (S (0.3-0.7), synergism)"
same,combination index (CI) with paclitaxel,TNBC cells [1]; PS 50 nM + paclitaxel 50 nM,0.74
same,synergism vs additive vs antagonism effect with paclitaxel,TNBC cells [1]; PS 50 nM + paclitaxel 50 nM,"(MS) (MS (0.7-0.85), moderate synergism)"
same,combination index (CI) with methotrexate,TNBC cells [2],1.57
same,synergism vs additive vs antagonism effect with methotrexate,TNBC cells [2],"(A) (A (1.45-3.3), antagonism)"
same,"cell inhibition (%), combination with cisplatin","TNBC BT-549 cells; PS 100 nM + cisplatin 25 μM, 24 h, light 0.96 J cm−2",53%
same,effect of added cisplatin compared to cisplatin-treated cell viability,"TNBC BT-549 cells; PS 100 nM + cisplatin 25 μM, light",reduced cell survival
same,"cell survival, co-treatment with doxorubicin in the dark","TNBC BT-549 cells; PS 100 nM + doxorubicin 500 nM, 24 h, dark",51%
same,"cell inhibition (%), combination with doxorubicin","TNBC BT-549 cells; PS 100 nM + doxorubicin 500 nM, 24 h, light 0.96 J cm−2",64%
same,"cell survival, co-treatment with doxorubicin upon light","TNBC BT-549 cells; PS 100 nM + doxorubicin 500 nM, light, 1440 min, 0.1 µM",35% and 36%
same,best combination partner,"TNBC BT-549 cells; PS 100 nM + drug, light","with paclitaxel followed by doxorubicin or fluorouracil; also recorded: with paclitaxel, followed by doxorubicin or fluorouracil"
same,"cell inhibition (%), combination with fluorouracil","TNBC BT-549 cells; PS 100 nM + fluorouracil 25 μM, 24 h, light 0.96 J cm−2",64%
same,cell viability reduction (difference) vs PS alone,TNBC BT-549 cells; [3],46%
same,effect of added fluorouracil compared to fluorouracil-treated cell viability,TNBC BT-549 cells; [3],reduced cell survival
same,"cell survival, co-treatment with fluorouracil upon light","TNBC BT-549 cells; PS 100 nM + fluorouracil 25 μM, light, 1440 min",36%
same,"cell survival, co-treatment with methotrexate in the dark","TNBC BT-549 cells; PS 100 nM + methotrexate 500 nM, 24 h, dark",85%
same,"cell inhibition (%), combination with methotrexate","TNBC BT-549 cells; PS 100 nM + methotrexate 500 nM, 24 h, light 0.96 J cm−2",42%
same,"cell inhibition (%), combination with paclitaxel","TNBC BT-549 cells; PS 100 nM + paclitaxel 50 nM, 24 h, light 0.96 J cm−2",65%
same,"cell survival, co-treatment with paclitaxel upon light","TNBC BT-549 cells; PS 100 nM + paclitaxel 50 nM, light, 1440 min",35%
same,"chemophotodynamic potency against TNBC cells, summary","TNBC BT-549 cells; PS 100 nM alone or in combination, light",better activity against TNBC cells than the starting compound MePheo
same,"cell survival, PS alone","TNBC BT-549 cells; PS 100 nM, light 0.96 J/cm^2, 1440 min, 0.1 µM",82% and 81%
same,"cytotoxicity in the absence of light, PS alone","TNBC BT-549 cells; PS 500 nM, dark",No cytotoxicity
same,combination therapy vs monotherapy (doxorubicin),"TNBC BT-549 cells; PS + doxorubicin, light",better photodynamic effect when co-treated with doxorubicin than PS-treatment alone
same,combination therapy vs monotherapy (fluorouracil),"TNBC BT-549 cells; PS + fluorouracil, light",best compared to monotherapy alone and with the other PSs used
same,cell viability reduction (difference) vs PS alone,"TNBC BT-549 cells; PS at lower concentration (CPA: 50 nM) + methotrexate 500 nM, light",10%
same,"cell morphology, PS co-treated with cisplatin, light","human TNBC BT-549 cells; PS 50 nM + cisplatin 25 μM, light 0.48 J/cm^2 (FIG. 18S-T)",a significant number of shrunk cells and chromatin condensation can be seen
same,"cell morphology, PS co-treated with doxorubicin","human TNBC BT-549 cells; PS 50 nM + doxorubicin 500 nM, irradiated",No significant difference
same,"cell morphology, PS co-treated with methotrexate, light","human TNBC BT-549 cells; PS 50 nM + methotrexate 500 nM, light (FIG. 18X-Y)",Very few cells exhibit chromatin condensation
same,"cell morphology, PS co-treated with paclitaxel","human TNBC BT-549 cells; PS 50 nM + paclitaxel 50 nM, light (FIG. 18M-O)",shrunk cells and chromatin fragmentation are evident
same,"cell morphology, PS-treated then light","human TNBC BT-549 cells; PS 50 nM, 24 h, light (FIG. 18F-H)",not as obvious
same,preferred mode of cell death,human TNBC BT-549 cells; PS co-treated with paclitaxel or cisplatin,apoptosis
